Test results taken from patent US12291508B2, “Hydrazide containing nuclear transport modulators and uses thereof” (Karyopharm Therapeutics Inc., priority 2011, dated 2025).

Experiments:
[1] = target: T1, CRM1-mediated nuclear export (Homo sapiens, UniProt O14980); experiment: RevGFP assay, inhibition of nuclear export; format: cell-based; conditions: U2OS-RevGFP cells, about 1 hr incubation; read-out: Rev Export
T1 construct: endogenous in cells; host or cells: U2OS-RevGFP cells
Procedure: The ability of exemplary compounds of the invention to inhibit CRM1-mediated nuclear export was assessed in a RevGFP assay. Rev is a protein from human immunodeficiency virus type 1 (HIV-1) and contains a nuclear export signal (NES) in its C-terminal domain and a nuclear localization signal (NLS) in its N-terminal domain. Nuclear export of Rev protein is dependent on the classical NES/CRM1 pathway (Neville et al. 1997).
In this assay, U2OS-RevGFP cells were seeded onto clear-bottomed, black, 384-well plates the day before the experiment. Compounds were serially diluted 1:2 in DMEM, starting from 40 μM in a separate, 384-well plate, and then transferred onto the cells. The cells were incubated with compound for about 1 hr before fixation with 3.7% formaldehyde and nuclei staining with Hoechst 33258. The amount of GFP in cell nuclei was measured and the IC50 of each compound was determined (Kau et al. 2003).

[2] = system: MM.1S multiple myeloma cell line; experiment: CellTiter 96 AQueous One Solution cell proliferation assay, MM.1S; format: cell-based; conditions: Homo sapiens, MM1.S, 72 h of treatment, read-out: Cytotoxicity Assay
Description: The CellTiter 96® AQueous One Solution cell proliferation assay (Promega) was used on MM.1S multiple myeloma cell line to study the cytotoxic and cytostatic properties of the compounds. The assay is based on the cleavage of the tetrazolium salt, MTS, in the presence of an electron-coupling reagent PES (phenazine ethosulfate). The MTS tetrazolium compound is bioreduced by cells into a colored formazan product that is soluble in tissue culture medium. This conversion is presumably accomplished by NADPH or NADH produced by dehydrogenase enzymes in metabolically active cells. Assays are performed by adding a small amount of the CellTiter 96® AQueous One solution reagent directly to culture wells, incubating for 1-4 hours and then recording the absorbance at 490 nm with a 96-well plate reader.
The cells were seeded at 5×10^3 to 1.5×10^4 cells in each well of a 96-well plate in 100 μL of fresh culture medium and adherent cells were allowed to attach overnight. The stock solutions of the compounds were diluted in cell culture medium to obtain eight concentrations of each drug, ranging from 1 nM to 30 μM and DMSO at less than 1% v/v was used as a negative control. The resulting drug solutions were transferred onto the cells. After 72 h of treatment, 20 μl of CellTiter 96® AQueous reagent was added into each well of the 96-well assay plates and the plate was incubated at 37° C. for 1-4 hours in a humidified, 5% CO2 atmosphere. Then the absorbance of each well was recorded at 490 nm using a 96-well plate reader. In most cases, the assay was performed in triplicate and the results were presented as half maximal inhibitory concentration (IC50). Optical density versus compound concentration was plotted and analyzed using non-linear regression equations (IDBS XLfit) and the IC50 for each compound was calculated.

[3] = Pharmacokinetic (PK) assay, plasma AUC in mice; format: in vivo; conditions: mouse, plasma, 10 mg/kg po
Procedure: AUC. Blood was collected from mice (N=3) to contribute to the total of 10 time points (pre-dose, 5 min, 15 min, 30 min, 1 hour, 2 hours, 4 hours, 8 hours, 12 hours and 24 hours post dose). Mice were bled on a rotating basis, each mouse contributing 3 time points to the blood collection. At the designated time points, animals were anaesthetized under isoflurane, and approximately 110 μL of blood per time point was collected via retro-orbital puncture into pre-cooled K2EDTA (anti-coagulant) tubes. Blood samples were put on wet ice and centrifuged (2000 g, 5 min at 4° C.) to obtain plasma within 30 minutes of sample collection. All samples were stored frozen at approximately −80° C. until analysis. Prior to analysis, samples were mixed with internal standard (dexamethasone) in acetonitrile, vortexed, centrifuged, and supernatant was injected for analysis. Concentration of compounds in plasma was determined using LC-MS-MS instrumentation (API 4000, Triple Quadruple with electrospray ionization; Acuity Ultra Performance Liquid Chromatography column C18, with MeOH and formic acid as organic solvents). AUC values were calculated using WinNonlin Professional 6.2 software package, non-compartmental pharmacokinetic model NCA200.

[4] = Brain to Plasma (B:P) ratio in mice; format: in vivo; conditions: mouse, brain/plasma, 10 mg/kg po, 2 hours post-dose
Procedure: Brain to Plasma (B:P) Ratio. […] Following collection, brain tissue was rinsed with cold saline, dried on filter paper, weighed and snap-frozen by placing on dry ice. All samples were stored frozen at approximately −80° C. until analysis. […] Plasma samples were treated with the identical method (except homogenization step) and the concentration of compound in each matrix was calculated based on generated standard curves.

T1 sequence (O14980 whole entry): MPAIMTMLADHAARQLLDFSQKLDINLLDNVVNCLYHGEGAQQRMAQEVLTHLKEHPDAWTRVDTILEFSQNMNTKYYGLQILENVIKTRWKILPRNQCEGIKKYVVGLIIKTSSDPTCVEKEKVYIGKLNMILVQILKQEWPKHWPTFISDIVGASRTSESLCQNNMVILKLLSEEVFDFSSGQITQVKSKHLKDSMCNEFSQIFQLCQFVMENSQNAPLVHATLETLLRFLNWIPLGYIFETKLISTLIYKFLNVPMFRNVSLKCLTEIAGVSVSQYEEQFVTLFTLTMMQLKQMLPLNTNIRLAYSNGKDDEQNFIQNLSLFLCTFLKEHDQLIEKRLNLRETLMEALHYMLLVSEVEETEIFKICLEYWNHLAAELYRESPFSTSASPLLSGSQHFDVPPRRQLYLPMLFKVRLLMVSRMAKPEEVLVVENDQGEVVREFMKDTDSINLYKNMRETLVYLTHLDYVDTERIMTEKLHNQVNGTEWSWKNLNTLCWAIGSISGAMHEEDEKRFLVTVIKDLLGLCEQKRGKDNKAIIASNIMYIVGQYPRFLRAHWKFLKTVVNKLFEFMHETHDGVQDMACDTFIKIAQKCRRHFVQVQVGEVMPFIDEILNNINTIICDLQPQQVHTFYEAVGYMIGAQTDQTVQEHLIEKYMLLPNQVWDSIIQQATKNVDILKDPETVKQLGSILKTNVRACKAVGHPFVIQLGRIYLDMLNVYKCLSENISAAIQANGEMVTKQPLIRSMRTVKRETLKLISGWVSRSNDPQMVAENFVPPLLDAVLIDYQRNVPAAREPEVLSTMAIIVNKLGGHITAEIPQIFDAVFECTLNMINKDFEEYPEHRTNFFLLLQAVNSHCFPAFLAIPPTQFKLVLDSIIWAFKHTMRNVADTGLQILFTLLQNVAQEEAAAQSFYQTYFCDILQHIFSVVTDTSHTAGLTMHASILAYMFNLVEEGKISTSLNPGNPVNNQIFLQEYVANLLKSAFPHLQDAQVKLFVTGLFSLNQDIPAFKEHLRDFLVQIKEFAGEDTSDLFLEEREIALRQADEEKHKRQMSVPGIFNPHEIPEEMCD

Work on `O=C(/C=C\n1cnc(-c2cc(C(F)(F)F)cc(C(F)(F)F)c2)n1)NNc1cc(Cl)ncn1` [Compound I-12, (Z)-3-(3-(3,5-bis(trifluoromethyl)phenyl)-1H-1,2,4-triazol-1-yl)-N′-(6-chloropyrimidin-4-yl)acrylohydrazide] yielded an IC50 [1] of no more than 1000 nM, an IC50 [2] of no more than 1000 nM and an AUC(0-inf) [3] of 24900 ng·h/mL. It also gave a Kp at 2 h [4] of 0.13.
